{"source": "patent US20090221547A1", "about": "“Immunosuppressant Compounds and Compositions” (IRM LLC, priority 2005, published 2009)", "key": {"[1]": {"system": "peripheral blood lymphocytes", "assay": "Blood lymphocyte depletion, measurement of circulating lymphocytes", "format": "in vivo", "conditions": "Rattus norvegicus, Lewis rats, oral gavage 0.01-5 mg/kg, blood 6 and 48 hours after administration, read-out: ED50, effective dose required displaying 50% of blood lymphocyte depletion", "method": "C. In vivo: Screening Assays for Measurement of Blood Lymphocyte Depletion\nMeasurements of circulating lymphocytes: Compounds are dissolved in DMSO and PEG300 and diluted to obtain a final concentration of 2% DMSO and 2% PEG300 (v/v, final concentration). Lewis rats are administered compound solution orally by gavages at 0.01-5 mg/kg under short isoflurane anesthesia.\nBlood is collected from the retro-orbital sinus 6 and 48 hours after drug administration under short isoflurane anesthesia. Whole blood samples are subjected to hematology analysis. Peripheral lymphocyte counts are determined using an automated analyzer. Subpopulations of peripheral blood lymphocytes are stained by fluorochrome-conjugated specific antibodies and analyzed using a fluorescent activating cell sorter (Facscalibur). Two to three rats are used to assess the lymphocyte depletion activity of each compound screened. The result is an ED50, which is defined as the effective dose required displaying 50% of blood lymphocyte depletion."}, "[2]": {"target": "T1, human EDG-1 (Homo sapiens, UniProt P21453)", "T1 construct": "c-myc (N); expressed in transfected cells; host or cells: CHO cell clones (membrane preparation)", "T1 sequence (P21453 whole entry)": "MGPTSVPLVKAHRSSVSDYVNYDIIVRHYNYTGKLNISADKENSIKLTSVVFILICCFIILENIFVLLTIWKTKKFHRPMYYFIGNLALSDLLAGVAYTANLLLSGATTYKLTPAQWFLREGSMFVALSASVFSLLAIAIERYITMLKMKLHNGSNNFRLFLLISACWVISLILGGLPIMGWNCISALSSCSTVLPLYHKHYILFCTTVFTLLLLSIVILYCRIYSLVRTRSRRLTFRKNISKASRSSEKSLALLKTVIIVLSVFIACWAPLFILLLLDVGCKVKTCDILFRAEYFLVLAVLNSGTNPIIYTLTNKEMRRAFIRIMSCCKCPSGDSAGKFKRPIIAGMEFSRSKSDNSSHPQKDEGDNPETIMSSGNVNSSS", "assay": "EDG-1 (S1P1) GTP [γ-35S] binding assay (SPA), membranes of CHO cells", "format": "biochemical", "conditions": "membranes from CHO cells expressing human EDG-1", "method": "(§1) A. In vitro: A scintillation proximity assay (SPA) for measuring GTP [γ-^35S] binding to membranes prepared from CHO cells expressing human EDG/S1P receptors.\nEDG-1 (S1P1) GTP [γ-^35S] binding assay: Membrane protein suspensions are prepared from CHO cell clones stably expressing a human EDG-1 N-terminal c-myc tag. Solutions of test compounds ranging from 10 mM to 0.0 nM are prepared in DMSO/50 mM HCl and then diluted into assay buffer (20 mM HEPES, pH7.4, 100 mM NaCl, 10 mM MgCl2, 0.1% fat free BSA). Assay buffer-containing […] is mixed with wheat-germ agglutinin-coated SPA-beads (1 mg/well) followed by the addition of human EDG-1 membrane protein suspension (10 μg/well) and test compound. The bead/membrane/compound assay components are then mixed for 10-15 minutes on a shaker at room temperature. GTP [γ-^35S] (200 pM) and bead/membrane/compound assay mixture are added to individual wells of a 96 well Optiplate™ (final volume 225 μl/well), sealed and incubated at room temperature for 110 to 120 minutes under constant shaking. After centrifugation (2000 rpm, 10 minutes) luminescence is measured with a TopCount™ instrument.\nEC50 values are obtained by fitting the GTP [γ-^35S] binding curves (raw data) with the dose response curve-fitting tool of ORIGIN V. 6.1. […]"}, "[3]": {"system": "EDG-3, EDG-5, EDG-6 and EDG-8", "assay": "EDG-3, -5, -6 and -8 GTP [γ-35S] binding assays (SPA), CHO or RH7777 membranes", "format": "biochemical, human", "source_text": "as §1\nEC50 values are obtained by fitting the GTP [γ-^35S] binding curves (raw data) with the dose response curve-fitting tool of ORIGIN V. 6.1. Basal binding (no compound) and the highest stimulation of GTP [γ-^35S] binding achieved by an agonist are used as the fitting range. Seven different concentrations are used to generate a concentration response curve (using two or three data points per concentration).\nConcentrations of EDG receptor expressing membranes range between 13-19 μg per well. […] For example, 5-[4-(2′-fluoro-2-trifluoromethyl-biphenyl-4-yloxymethyl)-phenyl]-pyridine-2-carboxylic acid has an EC50 of 0.9 nM in the above assay and is at least 500 fold selective for EDG-1 compared to one or more of the other receptors including EDG-3, EDG-5, EDG-6 and EDG-8."}}, "note": "pEC50: −log10 of the molar value.", "data": [{"compound": "O=C(O)c1ccc(-c2ccc(COc3ccc(-c4ccccc4F)c(C(F)(F)F)c3)cc2)cn1", "note": "[Example 1, 5-[4-(2′-Fluoro-2-trifluoromethyl-biphenyl-4-yloxymethyl)-phenyl]-pyridine-2-carboxylic acid]", "values": [{"measurement": "ED50", "setting": "[1]", "result": 0.3, "unit": "mg/kg"}, {"measurement": "pEC50", "setting": "[2]", "result": 9.05}, {"measurement": "fold selective for EDG-1 compared to one or more of the other receptors including EDG-3, EDG-5, EDG-6 and EDG-8", "setting": "[3]", "result": "at least 500 fold"}]}]}
